For series [1] the following is noted: cited from earlier work; for t½: humans, PLX038 prodrug and SN-38 released from it.
Another series has as its system 22Rv1 ATM KO xenografts. Nature of the series: PLX038A, TLZ and combination in 22Rv1 ATM KO xenografts. The class given is in vivo.
The subject of a further series is MX-1 xenografts. Nature of the series: PLX038A, TLZ and combination in MX-1 xenografts. Conditions: PLX038A 15 μmol/kg, TLZ 0.4 μmol/kg/day. In kind it is in vivo, mice. The source says:
When tumors reached 170 mm^3, mice received a single intraperitoneal dose of vehicle, a single intraperitoneal dose of PLX038A (15 μmol/kg), a daily oral dose of talazoparib (0.4 μmol/kg) or a combination of PLX038A (15 μmol/kg) and daily oral TLZ (0.4 μmol/kg) starting on either day 0 (same day as PLX038A dosing) or day 4.

The test system of series [2] is metastatic breast cancer with pathogenic germline ATM mutation. The experiment in a line: PLX038 and rucaparib in a patient with ATM deficient breast cancer (NCT04209595). The class given is in vivo, human. Conditions: single-agent low-dose PLX038 after rucaparib suspension at 4 months. As to the method:
A patient with metastatic breast cancer and germline ATM mutation was enrolled in the ongoing dose escalation phase of the trial. […] The patient was initially diagnosed with locally advanced invasive ductal carcinoma and was treated with neoadjuvant chemotherapy followed by surgery and radiation. Nine years later, they developed metastatic disease expressing estrogen and progesterone receptors, and was treated with multiple anti-endocrine therapies and chemotherapies including eribulin, abraxane, and carboplatin. […] At enrolment, they had skin lesions on the breast which were painful and pruritic and in addition had involvement of the lung and bones. […] The mutation results from a C to T substitution at nucleotide position 5908 and creates a premature translational stop signal which is expected to result in an absence or disrupted ATM protein. The variant was not present in population databases such as ExaC but has been reported in the literature in individuals with ataxia-telangiectasia and recognized as a founder mutation in the Costa Rican population.

Regarding `CCc1c2c(nc3ccc(O)cc13)-c1cc3c(c(=O)n1C2)COC(=O)[C@]3(O)CC` [SN-38], in series [1] (SN-38 formed from CPT-11), the half-life is ~12 h. In series [1], the t½ entry is “about 5 days”.

Regarding `Cn1ncnc1[C@H]1c2n[nH]c(=O)c3cc(F)cc(c23)N[C@@H]1c1ccc(F)cc1` [TLZ, talazoparib], the T/C3 wk in the series with 22Rv1 ATM KO xenografts (PLX038A 1.9 μmol/kg, TLZ 0.2 μmol/kg/day) is recorded as 0.76; with 22Rv1 ATM KO xenografts (PLX038A 1.95 μmol/kg, TLZ 0.3 μmol/kg/day), 0.69; in the series on 22Rv1 ATM KO xenografts (PLX038A 3.75 μmol/kg, TLZ 0.2 μmol/kg/day) it was 0.76; with 22Rv1 ATM KO xenografts (PLX038A 3.75 μmol/kg, TLZ 0.3 μmol/kg/day) it was 0.69; in the series with 22Rv1 ATM KO xenografts (PLX038A 7.5 μmol/kg, TLZ 0.4 μmol/kg/day), 0.72; in the series on MX-1 xenografts it was 0.21. In addition, the “inhibition of tumor growth” value is on record as “insignificantly inhibitory” in the series with 22Rv1 ATM KO xenografts (TLZ QD PO 0.2 μmol/kg) and “modestly inhibitory” in the series with 22Rv1 ATM KO xenografts (TLZ QD PO 0.4 μmol/kg).

As to “O-[7-(tetra-polyethylene glycol ether)-carboxamido-1-cyano-2-heptyl]-N-(10′-methoxy-7′-ethyl-camptothecin)-N-[4′-(diethylcarbamoyl)phenyl)]carbamate [PLX038]”, the t½ entry in series [1] was “about 5 days”. Also, the “duration of sustained suppression of the tumor after treatment initiation” value in series [2] is given as 12 months.

(Values after US20260034120A1, “TREATING CANCER WITH LONG-ACTING TOPOISOMERASE I INHIBITOR” (priority 2022, published 2026).)
